These results are taken from ChEMBL document CHEMBL1151599, “Probing the importance of the second chloroethyl arm of a benzoic acid mustard derivative of an imidazole-containing analogue of distamycin” (Bioorg Med Chem Lett, 1994).

The term IC50 denotes the concentration that inhibits the measured activity by half. A low value points to greater potency in that assay.

For assay [1], the system named is K562. The experiment in a line: Cytotoxicity against the growth of chronic human myeloid leukemia K562 cells in culture following 1 hour exposure of compound using MTT assay. In kind it is functional, cell-based. The conditions noted are these: K562, 1 h. In general terms: Formazan colour is commonly taken as a measure of viable cells.
Assay [2] concerns Nucleic Acid. The experiment in a line: Apparent DNA binding constant to Poly (dA-dT) was determined using an ethidium displacement assay. The assay is classed as nucleic-acid assay.
Assay [3] relates to Nucleic Acid. Nature of the assay: Apparent DNA binding constant to Poly (dG-dC) was determined using an ethidium displacement assay. The assay is classed as nucleic-acid assay.
The test system of assay [4] is Nucleic Acid. Nature of the assay: Apparent DNA binding constant to T4 DNA was determined using an ethidium displacement assay. In kind it is nucleic-acid assay.
The test system of assay [5] is Nucleic Acid. The experiment in a line: Apparent DNA binding constant to calf thymus DNA was determined using an ethidium displacement assay. Particulars: Bos taurus. In kind it is nucleic-acid assay.

Where only a bound is given, the exact number is not on record here.

For the compound `CN(C)CCNC(=O)c1nc(NC(=O)c2nc(NC(=O)c3nc(NC(=O)c4ccc(NCCCl)cc4)cn3C)cn2C)cn1C`, in assay [1], the IC50 is above 100 µM. In addition, the K app in assay [2] came out at 550000 M⁻¹; in assay [3], 900000 M⁻¹; in assay [4], 3.89e+06 M⁻¹; in assay [5], 2.27e+06 M⁻¹.

On to `CN(C)CCNC(=O)c1nc(NC(=O)c2nc(NC(=O)c3nc(NC(=O)c4ccc(N(CCCl)CCCl)cc4)cn3C)cn2C)cn1C`, for which the K app in assay [2] amounted to 550000 M⁻¹; in assay [3], 500000 M⁻¹; in assay [4], 170000 M⁻¹; in assay [5], 590000 M⁻¹.
